The source of these data is patent US12227500B2, “Substituted pyrrolo[2,3-b]pyridines for suppressing toxic endoplasmic reticulum stress” (THE TRUSTEES OF COLUMBIA UNIVERSITY IN THE CITY OF NEW YORK, priority 2018, dated 2025).

Holding throughout (test): Radiolabeled ATP kinase assay, panel of 371 kinases (Table S6)
What all share (assay type): biochemical

Assay [1] concerns the target T1, panel of 371 human kinases (Homo sapiens, UniProt Q15418).
T1 construct: purchased Reaction Biology Corp
The following applies: RSK1; 0.1 μM; 10 μM ATP; read-out: % Enzyme Activity (relative to DMSO controls). The source says: (§1) ; FIG. 38C). […]. Further targeted analyses, such as genetic knock-down or knock-out, may be warranted to parse the role of these additional kinases in our model of neurodegeneration.

Assay [2] has as its target T2, panel of 371 human kinases (Homo sapiens, UniProt O00141).
T2 construct: purchased Reaction Biology Corp
The following applies: SGK1; 0.1 μM; 10 μM ATP; read-out: % Enzyme Activity (relative to DMSO controls).
From the text: as §1

For assay [3], the target named is T3, panel of 371 human kinases (Homo sapiens, UniProt P36897).
T3 construct: purchased Reaction Biology Corp
Particulars: ALK5/TGFBR1; 0.1 μM; 10 μM ATP; read-out: % Enzyme Activity (relative to DMSO controls).
From the text: as §1

Assay [4] addresses T4, panel of 371 human kinases (Homo sapiens, UniProt Q15349).
T4 construct: purchased Reaction Biology Corp
Particulars: RSK3; 0.1 μM; 10 μM ATP; read-out: % Enzyme Activity (relative to DMSO controls).
From the text: as §1

For assay [5], the target named is T5, panel of 371 human kinases (Homo sapiens, UniProt Q96PN8).
T5 construct: purchased Reaction Biology Corp
T5 sequence (Q96PN8 whole entry): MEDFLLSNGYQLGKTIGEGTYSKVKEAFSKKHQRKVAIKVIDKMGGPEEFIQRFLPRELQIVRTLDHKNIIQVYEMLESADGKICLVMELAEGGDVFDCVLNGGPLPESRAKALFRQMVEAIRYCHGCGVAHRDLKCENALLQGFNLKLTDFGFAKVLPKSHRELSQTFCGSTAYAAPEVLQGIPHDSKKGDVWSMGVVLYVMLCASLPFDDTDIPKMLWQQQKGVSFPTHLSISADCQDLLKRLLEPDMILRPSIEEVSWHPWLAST
The following applies: TSSK3/STK22C; 0.1 μM; 10 μM ATP; read-out: % Enzyme Activity (relative to DMSO controls).
From the text: as §1

The target of assay [6] is T6, panel of 371 human kinases (Homo sapiens, UniProt Q9HAZ1).
T6 construct: purchased Reaction Biology Corp
Particulars: CLK4; 0.1 μM; 10 μM ATP; read-out: % Enzyme Activity (relative to DMSO controls).
From the text: as §1

Assay [7] concerns the target T7, panel of 371 human kinases (Homo sapiens, UniProt Q15375).
T7 construct: purchased Reaction Biology Corp
Particulars: EPHA7; 0.1 μM; 10 μM ATP; read-out: % Enzyme Activity (relative to DMSO controls).
From the text: as §1

The target in assay [8] is T8, panel of 371 human kinases (Homo sapiens, UniProt Q13163).
T8 construct: purchased Reaction Biology Corp
Particulars: MEK5; 0.1 μM; 10 μM ATP; read-out: % Enzyme Activity (relative to DMSO controls).
From the text: as §1

The target of assay [9] is T9, panel of 371 human kinases (Homo sapiens, UniProt Q9H2K8).
T9 construct: purchased Reaction Biology Corp
T9 sequence (Q9H2K8 whole entry): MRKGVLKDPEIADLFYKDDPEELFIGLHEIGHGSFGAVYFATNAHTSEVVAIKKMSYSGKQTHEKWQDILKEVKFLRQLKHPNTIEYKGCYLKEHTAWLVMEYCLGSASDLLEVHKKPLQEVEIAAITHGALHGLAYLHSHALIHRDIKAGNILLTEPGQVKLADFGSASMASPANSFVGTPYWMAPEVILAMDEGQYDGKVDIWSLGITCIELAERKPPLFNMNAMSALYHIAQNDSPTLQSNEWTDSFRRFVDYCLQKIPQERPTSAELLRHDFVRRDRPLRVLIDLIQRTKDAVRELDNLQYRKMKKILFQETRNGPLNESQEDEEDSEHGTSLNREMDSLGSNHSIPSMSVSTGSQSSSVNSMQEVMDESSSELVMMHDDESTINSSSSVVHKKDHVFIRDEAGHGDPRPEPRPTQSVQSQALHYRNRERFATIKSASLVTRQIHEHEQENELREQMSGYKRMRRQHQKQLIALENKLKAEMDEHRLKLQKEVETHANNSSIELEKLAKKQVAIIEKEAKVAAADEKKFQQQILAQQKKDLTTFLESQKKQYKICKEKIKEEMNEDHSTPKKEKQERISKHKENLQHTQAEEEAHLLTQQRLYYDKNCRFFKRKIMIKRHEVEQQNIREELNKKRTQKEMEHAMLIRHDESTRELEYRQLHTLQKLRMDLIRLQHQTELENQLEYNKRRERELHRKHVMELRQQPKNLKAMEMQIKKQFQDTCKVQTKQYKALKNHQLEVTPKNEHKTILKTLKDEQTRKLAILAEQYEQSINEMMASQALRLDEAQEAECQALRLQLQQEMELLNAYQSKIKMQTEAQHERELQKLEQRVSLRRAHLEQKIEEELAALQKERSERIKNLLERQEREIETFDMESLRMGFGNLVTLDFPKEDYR
The following applies: TAOK3/JIK; 0.1 μM; 10 μM ATP; read-out: % Enzyme Activity (relative to DMSO controls).
From the text: as §1

Assay [10] has as its target T10, panel of 371 human kinases (Homo sapiens, UniProt P37023).
T10 construct: purchased Reaction Biology Corp
The following applies: ALK1/ACVRL1; 0.1 μM; 10 μM ATP; read-out: % Enzyme Activity (relative to DMSO controls).
From the text: as §1

Assay [11] has as its target T11, panel of 371 human kinases (Homo sapiens, UniProt Q9Y243).
T11 construct: purchased Reaction Biology Corp
The following applies: AKT3; 0.1 μM; 10 μM ATP; read-out: % Enzyme Activity (relative to DMSO controls).
From the text: as §1

Assay [12] addresses T12, panel of 371 human kinases (Homo sapiens, UniProt O96017).
T12 construct: purchased Reaction Biology Corp
Particulars: CHK2; 0.1 μM; 10 μM ATP; read-out: % Enzyme Activity (relative to DMSO controls).
From the text: as §1

Assay [13] has as its target T13, panel of 371 human kinases (Homo sapiens, UniProt Q56UN5).
T13 construct: purchased Reaction Biology Corp
The following applies: VSK4/MAP3K19; 0.1 μM; 10 μM ATP; read-out: % Enzyme Activity (relative to DMSO controls).
From the text: as §1

For assay [14], the target named is T14, panel of 371 human kinases (Homo sapiens, UniProt P29320).
T14 construct: purchased Reaction Biology Corp
Particulars: EPHA3; 0.1 μM; 10 μM ATP; read-out: % Enzyme Activity (relative to DMSO controls).
From the text: as §1

Assay [15] deals with T15, panel of 371 human kinases (Homo sapiens, UniProt P22455).
T15 construct: purchased Reaction Biology Corp
T15 sequence (P22455 22-802): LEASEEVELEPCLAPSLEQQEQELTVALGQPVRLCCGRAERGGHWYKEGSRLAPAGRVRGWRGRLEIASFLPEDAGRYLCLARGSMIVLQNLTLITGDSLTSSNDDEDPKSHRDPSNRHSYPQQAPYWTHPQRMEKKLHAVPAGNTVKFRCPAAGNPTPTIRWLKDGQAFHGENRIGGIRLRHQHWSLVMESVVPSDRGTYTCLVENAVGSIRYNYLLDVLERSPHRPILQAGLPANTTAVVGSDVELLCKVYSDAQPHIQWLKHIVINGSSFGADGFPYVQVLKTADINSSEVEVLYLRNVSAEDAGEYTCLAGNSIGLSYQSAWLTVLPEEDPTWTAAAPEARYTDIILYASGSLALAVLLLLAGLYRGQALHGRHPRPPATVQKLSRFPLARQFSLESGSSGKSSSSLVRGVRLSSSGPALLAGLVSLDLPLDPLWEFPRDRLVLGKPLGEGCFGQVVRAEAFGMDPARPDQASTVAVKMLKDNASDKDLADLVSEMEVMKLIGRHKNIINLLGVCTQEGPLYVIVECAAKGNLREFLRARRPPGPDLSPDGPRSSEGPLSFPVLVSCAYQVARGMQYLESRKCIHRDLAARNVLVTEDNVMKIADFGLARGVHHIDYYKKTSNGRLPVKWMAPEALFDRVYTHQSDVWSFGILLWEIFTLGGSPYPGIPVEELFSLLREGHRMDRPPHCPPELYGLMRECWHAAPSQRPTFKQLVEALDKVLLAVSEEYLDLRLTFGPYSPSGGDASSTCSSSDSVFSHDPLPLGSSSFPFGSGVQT
Particulars: FGFR4; 0.1 μM; 10 μM ATP; read-out: % Enzyme Activity (relative to DMSO controls).
From the text: as §1

The target of assay [16] is T16, panel of 371 human kinases (Homo sapiens, UniProt P19784).
T16 construct: purchased Reaction Biology Corp
T16 sequence (P19784 whole entry): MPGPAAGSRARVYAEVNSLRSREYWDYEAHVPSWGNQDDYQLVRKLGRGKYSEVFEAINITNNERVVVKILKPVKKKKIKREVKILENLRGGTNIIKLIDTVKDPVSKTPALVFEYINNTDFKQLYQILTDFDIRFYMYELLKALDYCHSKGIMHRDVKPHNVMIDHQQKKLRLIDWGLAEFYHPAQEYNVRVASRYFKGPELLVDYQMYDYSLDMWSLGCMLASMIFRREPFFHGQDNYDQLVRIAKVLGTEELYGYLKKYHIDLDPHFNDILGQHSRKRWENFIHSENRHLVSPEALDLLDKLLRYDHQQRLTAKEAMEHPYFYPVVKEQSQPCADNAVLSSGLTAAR
Particulars: CK2a2; 0.1 μM; 10 μM ATP; read-out: % Enzyme Activity (relative to DMSO controls).
From the text: as §1

Assay [17] concerns the target T17, panel of 371 human kinases (Homo sapiens, UniProt Q9P286).
T17 construct: purchased Reaction Biology Corp
The following applies: PAK5; 0.1 μM; 10 μM ATP; read-out: % Enzyme Activity (relative to DMSO controls).
From the text: as §1

Assay [18] concerns the target T18, panel of 371 human kinases (Homo sapiens, UniProt Q8TF76).
T18 construct: purchased Reaction Biology Corp
The following applies: Haspin; 0.1 μM; 10 μM ATP; read-out: % Enzyme Activity (relative to DMSO controls).
From the text: as §1

The target of assay [19] is T19, panel of 371 human kinases (Homo sapiens, UniProt Q7L7X3).
T19 construct: purchased Reaction Biology Corp
Particulars: TAOK1; 0.1 μM; 10 μM ATP; read-out: % Enzyme Activity (relative to DMSO controls).
From the text: as §1

Assay [20] concerns the target T20, panel of 371 human kinases (Homo sapiens, UniProt Q13177).
T20 construct: purchased Reaction Biology Corp
Particulars: PAK2; 0.1 μM; 10 μM ATP; read-out: % Enzyme Activity (relative to DMSO controls).
From the text: as §1

For assay [21], the target named is T21, panel of 371 human kinases (Homo sapiens, UniProt O60674).
T21 construct: purchased Reaction Biology Corp
The following applies: JAK2; 0.1 μM; 10 μM ATP; read-out: % Enzyme Activity (relative to DMSO controls).
From the text: as §1

Assay [22] addresses T22, panel of 371 human kinases (Homo sapiens, UniProt O14733).
T22 construct: purchased Reaction Biology Corp
Particulars: MKK7; 0.1 μM; 10 μM ATP; read-out: % Enzyme Activity (relative to DMSO controls).
From the text: as §1

Assay [23] has as its target T23, panel of 371 human kinases (Homo sapiens, UniProt Q9UEW8).
T23 construct: purchased Reaction Biology Corp
The following applies: STK39/STLK3; 0.1 μM; 10 μM ATP; read-out: % Enzyme Activity (relative to DMSO controls).
From the text: as §1

The target in assay [24] is T24, panel of 371 human kinases (Homo sapiens, UniProt Q12866).
T24 construct: purchased Reaction Biology Corp
T24 sequence (Q12866 21-999): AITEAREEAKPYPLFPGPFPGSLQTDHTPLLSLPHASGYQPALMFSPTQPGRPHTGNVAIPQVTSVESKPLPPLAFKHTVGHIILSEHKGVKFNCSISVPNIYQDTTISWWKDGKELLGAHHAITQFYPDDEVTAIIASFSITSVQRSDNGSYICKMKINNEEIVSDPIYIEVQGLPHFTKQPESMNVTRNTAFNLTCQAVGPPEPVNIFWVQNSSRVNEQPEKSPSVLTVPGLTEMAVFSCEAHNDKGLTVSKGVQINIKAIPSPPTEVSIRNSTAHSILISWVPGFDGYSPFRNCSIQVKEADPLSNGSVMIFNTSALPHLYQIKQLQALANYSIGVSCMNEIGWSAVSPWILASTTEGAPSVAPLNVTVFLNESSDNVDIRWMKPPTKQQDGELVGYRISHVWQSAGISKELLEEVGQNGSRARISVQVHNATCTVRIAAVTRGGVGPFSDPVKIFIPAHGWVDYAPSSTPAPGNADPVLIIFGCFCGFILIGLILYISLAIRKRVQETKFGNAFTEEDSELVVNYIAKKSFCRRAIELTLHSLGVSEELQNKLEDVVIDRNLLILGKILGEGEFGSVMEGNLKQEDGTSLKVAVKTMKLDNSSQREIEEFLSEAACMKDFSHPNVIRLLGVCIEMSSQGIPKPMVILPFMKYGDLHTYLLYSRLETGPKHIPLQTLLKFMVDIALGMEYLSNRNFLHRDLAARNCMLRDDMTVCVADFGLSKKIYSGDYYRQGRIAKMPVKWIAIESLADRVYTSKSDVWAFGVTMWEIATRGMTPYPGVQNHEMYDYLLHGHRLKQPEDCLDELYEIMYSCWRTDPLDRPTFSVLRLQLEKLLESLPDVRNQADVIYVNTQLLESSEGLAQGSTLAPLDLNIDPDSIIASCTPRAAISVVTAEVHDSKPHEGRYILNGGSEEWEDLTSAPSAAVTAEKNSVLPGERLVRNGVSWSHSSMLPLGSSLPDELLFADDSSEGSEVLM
Particulars: c-MER; 0.1 μM; 10 μM ATP; read-out: % Enzyme Activity (relative to DMSO controls).
From the text: as §1

T12 sequence (O96017 whole entry): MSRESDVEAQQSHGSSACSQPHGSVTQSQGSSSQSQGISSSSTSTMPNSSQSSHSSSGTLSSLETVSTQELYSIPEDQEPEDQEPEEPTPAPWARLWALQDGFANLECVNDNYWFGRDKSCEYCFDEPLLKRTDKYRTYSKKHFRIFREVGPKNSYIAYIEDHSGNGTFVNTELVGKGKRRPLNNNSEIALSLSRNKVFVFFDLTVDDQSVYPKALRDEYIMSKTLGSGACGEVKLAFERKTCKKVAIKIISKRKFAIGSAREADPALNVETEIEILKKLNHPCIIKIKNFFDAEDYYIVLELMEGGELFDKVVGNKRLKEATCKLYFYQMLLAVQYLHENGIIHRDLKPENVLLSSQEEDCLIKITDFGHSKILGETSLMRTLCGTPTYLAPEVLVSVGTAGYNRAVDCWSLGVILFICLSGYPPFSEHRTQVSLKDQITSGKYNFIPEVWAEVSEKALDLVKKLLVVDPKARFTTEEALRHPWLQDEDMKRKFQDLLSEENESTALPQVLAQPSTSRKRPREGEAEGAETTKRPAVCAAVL
T4 sequence (Q15349 whole entry): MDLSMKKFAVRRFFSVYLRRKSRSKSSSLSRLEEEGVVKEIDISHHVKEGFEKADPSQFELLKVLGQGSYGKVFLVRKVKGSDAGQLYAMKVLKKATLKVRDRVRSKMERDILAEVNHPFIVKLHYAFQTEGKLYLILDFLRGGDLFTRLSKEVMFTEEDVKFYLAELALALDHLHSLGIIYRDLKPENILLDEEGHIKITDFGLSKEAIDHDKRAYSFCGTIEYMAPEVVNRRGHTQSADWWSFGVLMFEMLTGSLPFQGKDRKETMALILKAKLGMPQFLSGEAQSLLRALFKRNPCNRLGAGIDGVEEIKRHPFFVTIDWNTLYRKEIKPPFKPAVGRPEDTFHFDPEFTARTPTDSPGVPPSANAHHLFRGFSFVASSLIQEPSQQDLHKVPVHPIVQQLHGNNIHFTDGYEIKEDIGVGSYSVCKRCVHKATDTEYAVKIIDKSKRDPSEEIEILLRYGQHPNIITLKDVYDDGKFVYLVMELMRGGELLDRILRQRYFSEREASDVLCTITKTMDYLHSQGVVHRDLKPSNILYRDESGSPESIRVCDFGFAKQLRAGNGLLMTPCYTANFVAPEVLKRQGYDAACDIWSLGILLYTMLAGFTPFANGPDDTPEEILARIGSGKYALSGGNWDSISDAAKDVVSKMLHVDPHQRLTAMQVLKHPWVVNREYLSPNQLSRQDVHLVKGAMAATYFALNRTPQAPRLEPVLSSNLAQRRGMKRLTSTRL
T2 sequence (O00141 whole entry): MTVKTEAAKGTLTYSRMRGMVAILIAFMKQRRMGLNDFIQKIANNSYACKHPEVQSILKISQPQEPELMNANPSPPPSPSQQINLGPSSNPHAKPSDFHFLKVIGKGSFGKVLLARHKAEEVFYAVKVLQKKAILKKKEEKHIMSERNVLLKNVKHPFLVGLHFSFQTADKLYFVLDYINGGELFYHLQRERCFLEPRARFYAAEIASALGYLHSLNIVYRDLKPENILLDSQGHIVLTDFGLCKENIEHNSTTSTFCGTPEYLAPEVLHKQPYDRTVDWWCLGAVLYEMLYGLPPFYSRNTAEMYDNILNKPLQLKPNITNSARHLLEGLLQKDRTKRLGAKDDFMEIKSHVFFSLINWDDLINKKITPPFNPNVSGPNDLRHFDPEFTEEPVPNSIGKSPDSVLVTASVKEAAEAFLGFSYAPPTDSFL

Consider `CN1CCN(Cc2ccc(-c3cnc4[nH]cc(-c5ccc6[nH]ccc6c5)c4c3)cc2)CC1` [Compound 1, 3-(1H-Indol-5-yl)-5-(4-((4-methylpiperazin-1-yl)methyl)phenyl)-1H-pyrrolo[2,3-b]pyridine, reference compound], for which the remaining activity at 0.1 µM amounted to 85.4% in [1]; 96% in assay [2]; 97.6% in [3]; 61.7% in assay [4]; 146% in [5]; 94.5% in assay [6]. For the same molecule, the remaining activity at 0.1 µM in assay [7] is 89.5%; in [8] it was 97.6%; in [9], 87.3%; in [10], 106%; in assay [11] it was 98.4%; in [12] it was 85.2%. For the same molecule, the remaining activity at 0.1 µM was 101% in assay [13]; 99.8% in assay [14]; 97.2% in assay [15]; 84.3% in assay [16]; 113% in assay [17]; 128% in assay [18]. In addition, the remaining activity at 0.1 µM in [19] is 78.3%; in assay [20], 97.1%; in assay [21] it was 90.2%; in [22] it was 99.8%; in assay [23], 90.7%; in assay [24], 81.2%.
As to `OCCN1CCN(Cc2ccc(-c3cnc4[nH]cc(-c5cccc(Cl)c5)c4c3)cc2)CC1` [Compound 12k, 2-(4-(4-(3-(3-Chlorophenyl)-1H-pyrrolo[2,3-b]pyridin-5-yl)benzyl)piperazin-1-yl)ethan-1-ol], the remaining activity at 0.1 µM is 90% in assay [1]; 99.6% in [2]; 98.5% in assay [3]; 45.3% in assay [4]; 129% in assay [5]; 71.9% in assay [6]. Moreover, the remaining activity at 0.1 µM in [7] turned out to be 91.3%; in assay [8], 85.6%; in assay [9], 79.8%; in [10], 100%; in assay [11], 97.2%; in [12] it was 93.5%. Moreover, the remaining activity at 0.1 µM in assay [13] turned out to be 107%; in [14] it was 98.2%; in [15], 100%; in assay [16], 89%; in [17] it was 99%; in assay [18] it was 75%. For the same molecule, the remaining activity at 0.1 µM in assay [19] amounted to 59.8%; in [20], 85%; in assay [21], 93%; in [22] it was 105%; in [23], 77.3%; in assay [24], 75.1%.
